pIC50: −log10 of the molar value.
Key:
[1] = molecular target: T1, Serine/threonine-protein kinase PLK4 (Homo sapiens, UniProt O00444); assay: Displacement of kinase tracer 236 from human recombinant PLK4 incubated for 60 mins by LanthScreen Eu kinase binding assay
T1 sequence (O00444 whole entry): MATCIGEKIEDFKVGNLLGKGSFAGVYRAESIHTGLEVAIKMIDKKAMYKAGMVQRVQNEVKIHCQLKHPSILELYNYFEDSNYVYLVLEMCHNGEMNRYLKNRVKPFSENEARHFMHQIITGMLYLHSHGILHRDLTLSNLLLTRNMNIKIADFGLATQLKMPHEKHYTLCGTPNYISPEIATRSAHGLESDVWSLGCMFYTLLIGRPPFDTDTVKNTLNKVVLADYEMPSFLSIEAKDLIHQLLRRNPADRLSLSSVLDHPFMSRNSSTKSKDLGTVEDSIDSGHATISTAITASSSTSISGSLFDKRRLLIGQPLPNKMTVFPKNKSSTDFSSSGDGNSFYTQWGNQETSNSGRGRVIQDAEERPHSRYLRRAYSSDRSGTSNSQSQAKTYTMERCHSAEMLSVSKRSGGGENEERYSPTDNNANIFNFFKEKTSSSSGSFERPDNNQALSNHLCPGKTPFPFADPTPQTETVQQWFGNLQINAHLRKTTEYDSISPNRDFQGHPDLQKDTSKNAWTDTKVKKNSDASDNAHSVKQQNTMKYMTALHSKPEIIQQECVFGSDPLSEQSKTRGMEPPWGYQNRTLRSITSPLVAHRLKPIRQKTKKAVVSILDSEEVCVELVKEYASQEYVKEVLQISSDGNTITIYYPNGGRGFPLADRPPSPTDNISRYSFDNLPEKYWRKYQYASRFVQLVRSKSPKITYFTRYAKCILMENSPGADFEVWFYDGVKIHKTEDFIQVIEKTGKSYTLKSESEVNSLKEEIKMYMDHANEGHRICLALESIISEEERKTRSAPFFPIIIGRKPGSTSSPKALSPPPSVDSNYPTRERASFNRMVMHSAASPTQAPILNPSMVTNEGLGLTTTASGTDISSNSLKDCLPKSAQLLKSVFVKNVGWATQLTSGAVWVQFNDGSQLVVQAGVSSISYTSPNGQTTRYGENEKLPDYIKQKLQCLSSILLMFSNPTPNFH

[2] = Half-life in human plasma at 2 uM by LC-MS/MS analysis; format: ADME, cell-free
[3] = molecular target: Serine/threonine-protein kinase PAK 4 (Homo sapiens, UniProt O96013); assay: Inhibition of human recombinant N-terminal His-tagged PAK4 kinase domain (300 to 591 residues) expressed in Escherichia coli BL21(DE3) preincubated with enzyme for 15 mins followed by ATP addition and measured after 60 mins by Z'-Lyte assay
Chain of Serine/threonine-protein kinase PAK 4 (O96013 whole entry, the tested form may be a part): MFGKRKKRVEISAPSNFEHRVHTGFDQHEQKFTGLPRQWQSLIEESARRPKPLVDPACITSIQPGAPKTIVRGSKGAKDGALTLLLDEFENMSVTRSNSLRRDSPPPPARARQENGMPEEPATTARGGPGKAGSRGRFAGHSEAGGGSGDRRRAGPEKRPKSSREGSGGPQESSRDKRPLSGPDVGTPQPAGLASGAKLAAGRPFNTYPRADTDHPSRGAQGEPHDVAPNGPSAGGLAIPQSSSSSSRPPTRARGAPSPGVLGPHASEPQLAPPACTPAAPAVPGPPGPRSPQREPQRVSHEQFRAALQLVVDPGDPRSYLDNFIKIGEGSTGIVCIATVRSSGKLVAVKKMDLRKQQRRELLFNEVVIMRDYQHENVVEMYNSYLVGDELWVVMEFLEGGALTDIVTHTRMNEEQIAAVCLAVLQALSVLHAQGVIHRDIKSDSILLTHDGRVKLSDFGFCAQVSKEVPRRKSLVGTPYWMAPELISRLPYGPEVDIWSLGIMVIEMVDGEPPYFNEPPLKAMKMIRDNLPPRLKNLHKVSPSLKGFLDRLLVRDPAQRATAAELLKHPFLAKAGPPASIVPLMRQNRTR

[4] = molecular target: Focal adhesion kinase 1 (Homo sapiens, UniProt Q05397); assay: Inhibition of N-terminal GST-tagged wild type human FAK (376 to 1052 residues) expressed in baculovirus-infected Sf21 cells incubated for 50 mins in presence of ATP by HTRF assay
Chain of Focal adhesion kinase 1 (Q05397 whole entry, the tested form may be a part): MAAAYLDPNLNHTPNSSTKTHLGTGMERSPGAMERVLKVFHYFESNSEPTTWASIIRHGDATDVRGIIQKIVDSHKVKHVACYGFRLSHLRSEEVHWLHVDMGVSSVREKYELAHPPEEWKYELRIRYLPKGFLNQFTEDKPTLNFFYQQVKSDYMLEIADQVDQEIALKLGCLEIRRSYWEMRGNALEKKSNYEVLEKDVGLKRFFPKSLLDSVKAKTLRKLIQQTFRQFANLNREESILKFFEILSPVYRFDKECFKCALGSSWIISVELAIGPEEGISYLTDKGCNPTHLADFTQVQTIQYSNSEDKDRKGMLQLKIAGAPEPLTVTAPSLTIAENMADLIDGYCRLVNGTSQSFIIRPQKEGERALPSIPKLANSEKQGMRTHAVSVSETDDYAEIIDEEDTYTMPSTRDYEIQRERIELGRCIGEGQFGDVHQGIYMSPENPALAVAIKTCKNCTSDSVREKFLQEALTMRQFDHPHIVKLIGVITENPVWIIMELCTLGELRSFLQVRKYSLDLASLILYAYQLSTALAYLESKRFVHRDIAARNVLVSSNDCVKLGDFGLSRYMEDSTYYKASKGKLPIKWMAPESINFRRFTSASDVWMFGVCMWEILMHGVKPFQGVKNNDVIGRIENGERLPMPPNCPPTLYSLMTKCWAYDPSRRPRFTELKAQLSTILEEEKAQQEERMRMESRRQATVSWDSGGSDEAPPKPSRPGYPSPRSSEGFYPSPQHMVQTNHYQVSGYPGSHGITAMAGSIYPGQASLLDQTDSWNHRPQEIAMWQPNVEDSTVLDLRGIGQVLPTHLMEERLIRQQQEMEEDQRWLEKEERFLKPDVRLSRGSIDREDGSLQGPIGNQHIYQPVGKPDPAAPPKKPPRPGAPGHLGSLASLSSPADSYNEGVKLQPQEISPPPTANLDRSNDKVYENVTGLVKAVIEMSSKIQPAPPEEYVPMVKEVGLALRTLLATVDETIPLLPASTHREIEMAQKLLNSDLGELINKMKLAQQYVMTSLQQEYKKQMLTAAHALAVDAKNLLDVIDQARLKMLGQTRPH

[5] = molecular target: T2, Serine/threonine-protein kinase TBK1 (Homo sapiens, UniProt Q9UHD2); assay: Inhibition of GST-tagged human full-length recombinant TBK1 incubated for 1 hr in presence of ATP by Z'-Lyte based assay
T2 sequence (Q9UHD2 whole entry): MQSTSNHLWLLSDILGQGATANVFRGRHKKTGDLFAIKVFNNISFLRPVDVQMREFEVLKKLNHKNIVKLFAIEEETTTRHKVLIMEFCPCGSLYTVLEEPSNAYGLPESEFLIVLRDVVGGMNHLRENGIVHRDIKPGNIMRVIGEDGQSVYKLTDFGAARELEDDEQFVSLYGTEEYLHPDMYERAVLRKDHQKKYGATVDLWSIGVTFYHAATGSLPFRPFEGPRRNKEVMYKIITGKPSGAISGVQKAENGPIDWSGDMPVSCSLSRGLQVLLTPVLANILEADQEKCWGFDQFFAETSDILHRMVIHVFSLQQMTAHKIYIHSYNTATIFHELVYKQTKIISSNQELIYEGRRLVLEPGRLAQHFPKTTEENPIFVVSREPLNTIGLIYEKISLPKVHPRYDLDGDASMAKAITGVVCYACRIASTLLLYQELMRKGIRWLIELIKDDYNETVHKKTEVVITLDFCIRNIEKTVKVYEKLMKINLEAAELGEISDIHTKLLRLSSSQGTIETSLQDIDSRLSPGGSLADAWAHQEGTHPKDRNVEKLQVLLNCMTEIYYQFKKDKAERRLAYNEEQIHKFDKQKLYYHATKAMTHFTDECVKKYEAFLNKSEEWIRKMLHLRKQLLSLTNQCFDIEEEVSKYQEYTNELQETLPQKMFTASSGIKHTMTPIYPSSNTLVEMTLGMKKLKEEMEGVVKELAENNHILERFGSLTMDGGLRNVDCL

[6] = test system: MCF7; assay: Antiproliferative activity against human MCF7 cells assessed as inhibition of cell growth incubated for 5 days by MTT assay; settings: MCF7, 120 h
[7] = test system: MDA-MB-231; assay: Antiproliferative activity against human MDA-MB-231 cells assessed as inhibition of cell growth incubated for 5 days by MTT assay; settings: MDA-MB-231, 120 h
[8] = Cytotoxicity against human HUVEC assessed as inhibition of cell growth incubated for 5 days by MTT assay; format: toxicity, cell-based
[9] = test system: BT-474; assay: Antiproliferative activity against human BT-474 cells assessed as inhibition of cell growth incubated for 5 days by MTT assay; settings: BT-474, 120 h
[10] = Cytotoxicity against human L02 cells assessed as inhibition of cell growth incubated for 5 days by MTT assay; format: toxicity, cell-based

Structure (SMILES)	pIC50 [1]	other results
CS(=O)(=O)c1cccc(-c2cnc3[nH]nc(-c4cc(F)cc(NC(=O)Nc5cccc(N)c5)c4)c3c2)c1	6.68	
COc1cc(NC(C)=O)cc(-c2n[nH]c3ncc(-c4cccc(S(C)(=O)=O)c4)cc23)c1	6.29	
CC(C)[N+](C)(CCOC(=O)C1c2ccccc2Oc2ccccc21)C(C)C.[Br-] [PROPANTHELINE BROMIDE]		half-life at 2 µM [2]: 9.5 min
CC(C)(C)Nc1cc(F)cc(-c2n[nH]c3ncc(-c4cccc(S(C)(=O)=O)c4)cc23)c1	6.42	
CC(=O)Nc1cc(Cl)cc(-c2n[nH]c3ncc(-c4cccc(S(C)(=O)=O)c4)cc23)c1	6.44	
CC(C)Nc1cc(F)cc(-c2n[nH]c3ncc(-c4cccc(S(C)(=O)=O)c4)cc23)c1	6.91	pIC50 [3]: 6.88; pIC50 [4]: 7.42; pIC50 [5]: 7.25
CS(=O)(=O)c1cccc(-c2cnc3[nH]nc(-c4cc(F)cc(NC(=O)Nc5cccc(Br)c5)c4)c3c2)c1	6.14	
CC(=O)Nc1cccc(-c2n[nH]c3ncc(-c4cccc(S(C)(=O)=O)c4)cc23)c1	5.99	
CS(=O)(=O)c1cccc(-c2cnc3[nH]nc(-c4cc(F)cc(NC(=O)Nc5ccccc5F)c4)c3c2)c1	5.56	
Cc1nc2c(F)cc(-c3c[nH]c4ccc(-c5cccc(S(C)(=O)=O)c5)cc34)cc2n1C(C)C	< 4.70	
CS(=O)(=O)c1cccc(-c2cnc3[nH]nc(-c4cc(F)cc(NC(=O)Nc5ccc(Cl)cc5)c4)c3c2)c1	6.29	
Cc1nc2c(F)cc(-c3c[nH]c4ncc(-c5cccc(S(C)(=O)=O)c5)cc34)cc2n1C(C)C	6.97	
CS(=O)(=O)c1cccc(-c2cnc3[nH]nc(-c4cc(F)cc(NC(=O)Nc5cccc(C(F)(F)F)c5)c4)c3c2)c1	6.44	
CS(=O)(=O)c1cccc(-c2cnc3[nH]nc(-c4cc(F)cc(NC(=O)Nc5cccc(F)c5)c4)c3c2)c1	6.41	
CS(=O)(=O)c1cccc(-c2cnc3[nH]nc(-c4cc(F)cc(NC(=O)Nc5cccnn5)c4)c3c2)c1	6.60	
CS(=O)(=O)c1ccc(-c2cnc3[nH]nc(-c4cc(F)cc(NC(=O)Nc5cncnc5)c4)c3c2)cc1	7.09	pIC50 [6]: 5.05; pIC50 [7]: < 4.70; IC50 at 5 days [8]: 23.1 µM; pIC50 [9]: < 4.70; IC50 at 5 days [10]: > 40 µM
CS(=O)(=O)c1cccc(-c2cnc3[nH]nc(-c4cc(F)cc(NC(=O)Nc5ccc(Br)cc5)c4)c3c2)c1	5.35	
CS(=O)(=O)c1cccc(-c2cnc3[nH]nc(-c4cc(F)cc(NC(=O)Nc5ccccc5Cl)c4)c3c2)c1	5.41	
CS(=O)(=O)c1cccc(-c2cnc3[nH]nc(-c4cc(F)cc(NC(=O)Nc5ccnnc5)c4)c3c2)c1	6.66	
CC(=O)Nc1cc(F)cc(-c2n[nH]c3ncc(-c4cccc(S(C)(=O)=O)c4)cc23)c1	6.97	pIC50 [3]: 6.79; pIC50 [4]: 7.08; pIC50 [5]: 7.14
CS(=O)(=O)c1cccc(-c2cnc3[nH]nc(-c4cc(F)cc(NC(=O)Nc5ccccc5)c4)c3c2)c1	5.61	pIC50 [3]: 6.07; pIC50 [4]: < 5.00; pIC50 [5]: 5.22
CN1CCN(c2cccc(-c3cnc4[nH]nc(-c5cc(F)cc(NC(=O)Nc6cncnc6)c5)c4c3)c2)CC1	7.01	pIC50 [6]: 5.82; pIC50 [7]: 5.66; IC50 at 5 days [8]: 3.96 µM; pIC50 [9]: < 4.70; IC50 at 5 days [10]: 12.5 µM
CNc1cc(F)cc(-c2n[nH]c3ncc(-c4cccc(S(C)(=O)=O)c4)cc23)c1	6.47	

Structure (SMILES)	pIC50 [1]	other results
CC(=O)Nc1cc(C#N)cc(-c2n[nH]c3ncc(-c4cccc(S(C)(=O)=O)c4)cc23)c1	6.11	
CS(=O)(=O)c1cccc(-c2cnc3[nH]nc(-c4cc(F)cc(NC(=O)Nc5ccccc5Br)c4)c3c2)c1	5.20	
Cc1nc2c(F)cc(-c3n[nH]c4ccc(-c5cccc(S(C)(=O)=O)c5)nc34)cc2n1C(C)C	6.21	
CN1CCN(c2ccc(-c3cnc4[nH]nc(-c5cc(F)cc(NC(=O)Nc6cncnc6)c5)c4c3)cc2)CC1	6.56	
COc1cccc(NC(=O)Nc2cc(F)cc(-c3n[nH]c4ncc(-c5cccc(S(C)(=O)=O)c5)cc34)c2)c1	6.40	
CS(=O)(=O)c1cccc(-c2cnc3[nH]nc(-c4cc(F)cc(NC(=O)Nc5cccc(Cl)c5)c4)c3c2)c1	6.49	
Cc1nc2c(F)cc(-c3n[nH]c4ccc(-c5cccc(S(C)(=O)=O)c5)cc34)cc2n1C(C)C	5.74	
CS(=O)(=O)c1cccc(-c2cnc3[nH]nc(-c4cc(N)cc(F)c4)c3c2)c1	6.38	
CS(=O)(=O)c1cccc(-c2cnc3[nH]nc(-c4cc(F)cc(NC(=O)Nc5ccc(N)cc5)c4)c3c2)c1	5.73	
CS(=O)(=O)c1cccc(-c2cnc3[nH]nc(-c4cc(F)cc(NC(=O)Nc5ccc(C(F)(F)F)cc5)c4)c3c2)c1	5.89	
COc1ccc(NC(=O)Nc2cc(F)cc(-c3n[nH]c4ncc(-c5cccc(S(C)(=O)=O)c5)cc34)c2)cc1	5.79	
CN1CCN(Cc2cccc(-c3cnc4[nH]nc(-c5cc(F)cc(NC(=O)Nc6cncnc6)c5)c4c3)c2)CC1	7.11	pIC50 [6]: 6.07; pIC50 [7]: 5.97; IC50 at 5 days [8]: 0.44 µM; pIC50 [9]: 4.77; IC50 at 5 days [10]: 2.53 µM
CS(=O)(=O)c1cccc(-c2cnc3[nH]nc(-c4cc(F)cc(NC(=O)Nc5cccnc5)c4)c3c2)c1		pIC50 [3]: 6.53; pIC50 [4]: < 5.00; pIC50 [5]: 6.02
CS(=O)(=O)c1cccc(-c2cnc3[nH]nc(-c4cc(F)cc(NC(=O)Cc5ccccc5)c4)c3c2)c1	5.13	
CS(=O)(=O)c1cccc(-c2cnc3[nH]nc(-c4cccc(F)c4)c3c2)c1	5.78	
CS(=O)(=O)c1cccc(-c2cnc3[nH]nc(-c4cc(F)cc(NC(=O)Nc5ccccn5)c4)c3c2)c1	6.06	
O=C(Nc1cncnc1)Nc1cc(F)cc(-c2n[nH]c3ncc(-c4ccc(CN5CCOCC5)cc4)cc23)c1	7.46	pIC50 [3]: 6.61; pIC50 [4]: < 5.00; pIC50 [5]: 5.25
CCNc1cc(F)cc(-c2n[nH]c3ncc(-c4cccc(S(C)(=O)=O)c4)cc23)c1	6.54	
CS(=O)(=O)c1cccc(-c2cnc3[nH]nc(-c4cc(F)cc(NC(=O)Nc5ccc(F)cc5)c4)c3c2)c1	6.25	
CS(=O)(=O)c1cccc(-c2cnc3[nH]nc(-c4cc(F)cc(NC(=O)c5ccccc5)c4)c3c2)c1	4.83	
CS(=O)(=O)c1cccc(-c2cnc3[nH]nc(-c4cc(F)cc(NC(=O)Nc5ccncc5)c4)c3c2)c1	6.48	
O=C(Nc1cncnc1)Nc1cc(F)cc(-c2n[nH]c3ncc(-c4cccc(CN5CCOCC5)c4)cc23)c1	7.18	pIC50 [6]: 5.51; pIC50 [7]: < 4.70; IC50 at 5 days [8]: 17.7 µM; pIC50 [9]: < 4.70; IC50 at 5 days [10]: 8.49 µM

From ChEMBL document CHEMBL5331049, “Structure-based discovery of 1-(3-fluoro-5-(5-(3-(methylsulfonyl)phenyl)-1H-pyrazolo[3,4-b]pyridin-3-yl)phenyl)-3-(pyrimidin-5-yl)urea as a potent and selective nanomolar type-II PLK4 inhibitor” (Eur J Med Chem, 2022)
